This passage reports IC50 results from patent publication US20110212997A1, “PIPERIDINE-4-ACETAMIDE DERIVATIVES AND THEIR USE AS MONOAMINE NEUROTRANSMITTER RE-UPTAKE INHIBITORS” (NEUROSEARCH A/S, priority 2008, published 2011).

In general, IC50 refers to the midpoint of a concentration-inhibition curve.

What all share (type): biochemical
The target in assay [1] is T1, dopamine (DA) reuptake in synaptosomes (Rattus norvegicus, UniProt P23977).
T1 construct: in synaptosomes as described in WO 97/16451; from tissue
Briefly: Inhibition of DA reuptake in synaptosomes. The method, then:
(§1) Compounds were tested for their ability to inhibit the reuptake of the monoamine neurotransmitters dopamine (DA) noradrenaline (NA) and serotonine (5-HT) in synaptosomes as described in WO 97/16451 (NeuroSearch NS).
(§2) The test values are given as IC50 (the concentration (μM) of the test substance which inhibits the specific binding of ^3H-DA, ^3H-NA, or ^3H-5-HT by 50%).

Assay [2] addresses T2, serotonine (5-HT) reuptake in synaptosomes (Rattus norvegicus, UniProt P31652).
T2 construct: serotonine (5-HT) in synaptosomes as described in WO 97/16451; from tissue
Put plainly: Inhibition of 5-HT reuptake in synaptosomes. Conditions: 3H-5-HT, read-out: 5-HT-uptake IC50. As for the experimental part:
as §1, §2

Assay [3] deals with T3, noradrenaline (NA) reuptake in synaptosomes (Rattus norvegicus, UniProt Q63380).
T3 construct: in synaptosomes as described in WO 97/16451; from tissue
Put plainly: Inhibition of NA reuptake in synaptosomes. The method, then: as §1, §2

Where [4] appears, read: synaptosomes, 3H-DA, read-out: DA-uptake IC50.
Setting [5] is: synaptosomes, 3H-NA, read-out: NA-uptake IC50.

Like-named read-outs stand apart in the source and are kept apart here.

T3 sequence (Q63380 1-617): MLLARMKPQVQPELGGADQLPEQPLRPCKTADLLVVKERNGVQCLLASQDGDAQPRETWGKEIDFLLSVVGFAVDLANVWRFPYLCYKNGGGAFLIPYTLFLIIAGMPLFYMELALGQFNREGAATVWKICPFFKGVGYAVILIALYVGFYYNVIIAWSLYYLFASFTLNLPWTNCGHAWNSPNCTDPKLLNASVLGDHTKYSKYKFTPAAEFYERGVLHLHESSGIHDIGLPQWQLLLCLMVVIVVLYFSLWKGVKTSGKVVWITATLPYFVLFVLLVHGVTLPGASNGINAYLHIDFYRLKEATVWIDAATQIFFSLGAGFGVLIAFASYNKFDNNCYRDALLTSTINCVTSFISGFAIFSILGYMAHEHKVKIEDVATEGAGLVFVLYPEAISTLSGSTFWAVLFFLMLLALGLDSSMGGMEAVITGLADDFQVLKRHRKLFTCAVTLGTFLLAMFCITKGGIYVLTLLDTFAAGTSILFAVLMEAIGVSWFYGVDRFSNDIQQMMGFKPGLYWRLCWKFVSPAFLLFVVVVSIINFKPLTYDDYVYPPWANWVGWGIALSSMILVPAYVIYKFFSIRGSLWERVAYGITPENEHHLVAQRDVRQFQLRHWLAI
T1 sequence (P23977 whole entry): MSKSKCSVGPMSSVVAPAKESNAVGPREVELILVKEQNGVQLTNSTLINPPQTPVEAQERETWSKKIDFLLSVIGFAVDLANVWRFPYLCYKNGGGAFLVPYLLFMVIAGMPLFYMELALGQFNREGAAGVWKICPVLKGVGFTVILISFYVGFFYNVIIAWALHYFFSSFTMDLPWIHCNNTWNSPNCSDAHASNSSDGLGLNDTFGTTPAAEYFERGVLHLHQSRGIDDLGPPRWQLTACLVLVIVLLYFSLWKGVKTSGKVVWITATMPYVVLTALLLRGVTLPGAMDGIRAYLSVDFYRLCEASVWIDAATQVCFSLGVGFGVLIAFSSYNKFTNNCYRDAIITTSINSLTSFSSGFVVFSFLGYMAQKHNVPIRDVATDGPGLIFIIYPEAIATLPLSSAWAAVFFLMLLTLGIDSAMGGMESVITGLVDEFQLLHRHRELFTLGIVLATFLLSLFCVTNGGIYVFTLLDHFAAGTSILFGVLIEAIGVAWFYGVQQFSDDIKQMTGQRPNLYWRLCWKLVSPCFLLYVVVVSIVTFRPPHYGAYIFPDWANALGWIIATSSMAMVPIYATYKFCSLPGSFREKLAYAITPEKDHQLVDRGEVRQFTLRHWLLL
T2 sequence (P31652 whole entry): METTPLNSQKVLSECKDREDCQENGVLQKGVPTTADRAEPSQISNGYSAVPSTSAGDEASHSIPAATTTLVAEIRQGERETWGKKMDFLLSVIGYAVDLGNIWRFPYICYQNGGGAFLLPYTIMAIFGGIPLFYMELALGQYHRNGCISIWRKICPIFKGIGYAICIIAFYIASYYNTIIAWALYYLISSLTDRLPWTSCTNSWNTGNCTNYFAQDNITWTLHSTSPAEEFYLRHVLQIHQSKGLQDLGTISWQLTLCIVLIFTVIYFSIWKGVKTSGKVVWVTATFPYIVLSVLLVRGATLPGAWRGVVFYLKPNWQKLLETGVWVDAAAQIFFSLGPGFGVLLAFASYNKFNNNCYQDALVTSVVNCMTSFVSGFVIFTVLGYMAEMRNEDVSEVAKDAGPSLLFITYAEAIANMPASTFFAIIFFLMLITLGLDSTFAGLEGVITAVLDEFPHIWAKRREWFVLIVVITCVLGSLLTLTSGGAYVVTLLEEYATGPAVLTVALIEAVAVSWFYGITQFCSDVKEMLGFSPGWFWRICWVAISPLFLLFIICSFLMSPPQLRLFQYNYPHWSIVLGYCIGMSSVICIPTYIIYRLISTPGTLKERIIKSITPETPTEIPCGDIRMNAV

Regarding `CN(C(=O)CC1CCNCC1)c1ccc(Cl)c(Cl)c1` [Compound B1, N-(3,4-Dichloro-phenyl)-N-methyl-2-piperidin-4-yl-acetamide], the IC50 amounted to 230 nM in assay [1] (setting [4]), 280 nM in assay [2] and 120 nM in assay [3] (setting [5]).

Take `CCN(C(=O)CC1CCNCC1)c1ccc(Cl)c(Cl)c1` [Compound C1, N-(3,4-Dichloro-phenyl)-N-ethyl-2-piperidin-4-yl-acetamide]: the concentration for half-maximal inhibition (IC50) was determined as 15 nM in assay [1] (setting [4]), 1500 nM in assay [2] and 6.6 nM in assay [3] (setting [5]).

Consider `CCN(C(=O)CC1CCN(C)CC1)c1ccc(Cl)cc1` [Compound D2, N-(4-Chloro-phenyl)-N-ethyl-2-(1-methyl-piperidin-4-yl)-acetamide], for which the IC50 was 970 nM in assay [1] (setting [4]), above 1000 nM in assay [2] and 390 nM in assay [3] (setting [5]).

On to `CCN(C(=O)CC1CCN(C)CC1)c1cccc(Cl)c1` [Compound D7, N-(3-Chloro-phenyl)-N-ethyl-2-(1-methyl-piperidin-4-yl)-acetamide], for which the figures for the IC50 in assay [1] (setting [4]), in assay [2] and in assay [3] (setting [5]) were 970 nM, above 1000 nM and 350 nM, respectively.

Take `CCN(C(=O)CC1CCN(C(C)C)CC1)c1ccc(Cl)c(Cl)c1` [Compound D10, N-(3,4-Dichloro-phenyl)-N-ethyl-2-(1-isopropyl-piperidin-4-yl)-acetamide]: the IC50 in assay [1] (setting [4]) stood at 31 nM; in assay [2], 1200 nM; in assay [3] (setting [5]), 7.7 nM.

With `CCN(C(=O)CC1CCN(C)CC1)c1ccc(Br)c(Br)c1` [Compound D19, N-(3,4-Dibromo-phenyl)-N-ethyl-2-(1-methyl-piperidin-4-yl)-acetamide], the IC50 was 3.6 nM in assay [1] (setting [4]), 680 nM in assay [2] and 1.1 nM in assay [3] (setting [5]).

In the case of `CCN(C(=O)CC1CCNCC1)c1ccc(Br)c(Cl)c1` [Compound D4, N-(4-Bromo-3-chloro-phenyl)-N-ethyl-2-piperidin-4-yl-acetamide], the IC50 is 8.6 nM in assay [1] (setting [4]), 2100 nM in assay [2] and 2.6 nM in assay [3] (setting [5]).

As for `CCN(C(=O)CC1CCNCC1)c1cccc(Cl)c1` [Compound C4, N-(3-Chloro-phenyl)-N-ethyl-2-piperidin-4-yl-acetamide], the IC50 in assay [1] (setting [4]) is 600 nM; in assay [2], above 1000 nM; in assay [3] (setting [5]) it was 460 nM.

In the case of `CCCN(C(=O)CC1CCNCC1)c1ccc(Cl)c(Cl)c1` [Compound C12, N-(3,4-Dichloro-phenyl)-2-piperidin-4-yl-N-propyl-acetamide], the IC50 in assay [1] (setting [4]) turned out to be 12 nM; in assay [2], 880 nM; in assay [3] (setting [5]), 5.2 nM.

Consider `CCN(C(=O)CC1CCN(C)CC1)c1cccc2ccccc12` [Compound D3, N-Ethyl-2-(1-methyl-piperidin-4-yl)-N-naphthalen-1-yl-acetamide], for which the figures for the IC50 in assay [1] (setting [4]), in assay [2] and in assay [3] (setting [5]) were above 1000 nM, above 1000 nM and 1700 nM, respectively.

Regarding `CN1CCC(CC(=O)Nc2ccc(Cl)c(Cl)c2)CC1` [Compound D6, N-(3,4-Dichloro-phenyl)-2-(1-methyl-piperidin-4-yl)-acetamide], the IC50 in assay [1] (setting [4]), in assay [2] and in assay [3] (setting [5]) was above 1000 nM in each case.

Turning to `CCCN1CCC(CC(=O)N(CC)c2ccc(Cl)c(Cl)c2)CC1` [Compound D9, N-(3,4-Dichloro-phenyl)-N-ethyl-2-(1-propykpiperidin-4-yl)-acetamide], the IC50 in assay [1] was found to be 12 nM; in assay [2] it was 780 nM; in assay [3] it was 3.8 nM.

As to `CCN(C(=O)CC1CCN(C)CC1)c1cc(Cl)cc(Cl)c1` [Compound D17, N-(3,5-Dichloro-phenyl)-N-ethyl-2-(1-methyl-piperidin-4-yl)-acetamide], the IC50 in assay [1] (setting [4]) is above 1000 nM; in assay [2], above 1000 nM; in assay [3] (setting [5]) it was 1800 nM.

Regarding `CN1CCC(CC(=O)N(C)c2ccc(Cl)c(Cl)c2)CC1` [Compound D12, N-(3,4-Dichloro-phenyl)-N-methyl-2-(1-methyl-piperidin-4-yl)-acetamide], the IC50 in assay [1] (setting [4]) was 160 nM; in assay [2], above 1000 nM; in assay [3] (setting [5]), 69 nM.

On to `CCN(C(=O)CC1CCNCC1)c1ccc(Cl)c(Cl)c1Cl` [Compound C10, N-Ethyl-2-piperidin-4-yl-N-(2,3,4-trichloro-phenyl)-acetamide], for which the results for the IC50 in assay [1] (setting [4]), in assay [2] and in assay [3] (setting [5]) were 630 nM, 1400 nM and 120 nM, respectively.

For the compound `CCN(C(=O)CC1CCNCC1)c1ccc(Cl)cc1` [Compound C3, N-(4-Chloro-phenyl)-N-ethyl-2-piperidin-4-yl-acetamide], the figures for the IC50 in assay [1] (setting [4]), in assay [2] and in assay [3] (setting [5]) were 450 nM, above 1000 nM and 770 nM, respectively.

As for `O=C(CC1CCNCC1)Nc1ccc(Cl)c(Cl)c1` [Compound C2, N-(3,4-Dichloro-phenyl)-2-piperidin-4-yl-acetamide], the IC50 in assay [1] (setting [4]) was above 1000 nM; in assay [2] it was 23 nM; in assay [3] (setting [5]), above 1000 nM.

As to `CCN(C(=O)CC1CCN(C)CC1)c1ccc(Cl)c(Br)c1` [Compound D21, N-(3-Bromo-4-chloro-phenyl)-N-ethyl-2-(1-methyl-piperidin-4-yl)-acetamide], the IC50 in assay [1] (setting [4]) was 12 nM; in assay [2], 1200 nM; in assay [3] (setting [5]), 2.3 nM.

In the case of `CCN(C(=O)CC1CCN(C)CC1)c1ccc(Br)c(Cl)c1` [Compound D13, N-(4-Bromo-3-chloro-phenyl)-N-ethyl-2-(1-methyl-piperidin-4-yl)-acetamide], the results for the IC50 in assay [1] (setting [4]), in assay [2] and in assay [3] (setting [5]) were 16 nM, 1500 nM and 2.7 nM, respectively.

Turning to `CCN(C(=O)CC1CCN(C)CC1)c1cccc(Cl)c1Cl` [Compound D8, N-(2,3-Dichloro-phenyl)-N-ethyl-2-(1-methyl-piperidin-4-yl)-acetamide], the IC50 in assay [1] (setting [4]), in assay [2] and in assay [3] (setting [5]) was above 1000 nM each time.

Regarding `CCN1CCC(CC(=O)N(CC)c2ccc(Cl)c(Cl)c2)CC1` [Compound D11, N-(3,4-Dichloro-phenyl)-N-ethyl-2-(1-ethyl-piperidin-4-yl)-acetamide], the IC50 in assay [1] (setting [4]) worked out at 13 nM; in assay [2], 870 nM; in assay [3] (setting [5]), 3.2 nM.

Turning to `CCN(C(=O)CC1CCNCC1)c1c(Cl)cccc1Cl` [Compound C8, N-(2,6-Dichloro-phenyl)-N-ethyl-2-piperidin-4-yl-acetamide], the IC50 in assay [1] (setting [4]) is above 1000 nM; in assay [2] it was above 1000 nM; in assay [3] (setting [5]) it was 2700 nM.

In the case of `CCN(C(=O)CC1CCNCC1)c1cc(Cl)cc(Cl)c1` [Compound C9, N-(3,5-Dichloro-phenyl)-N-ethyl-2-piperidin-4-yl-acetamide], the IC50 in assay [1] (setting [4]) is 1900 nM; in assay [2], above 1000 nM; in assay [3] (setting [5]), 670 nM.

Take `CCN(C(=O)CC1CCN(C)CC1)c1ccc(Cl)c(Cl)c1Cl` [Compound D18, N-Ethyl-2-(1-methyl-piperidin-4-yl)-N-(2,3,4-trichloro-phenyl)-acetamide]: the figures for the IC50 in assay [2] and in assay [3] (setting [5]) were 2100 nM and 81 nM, respectively.

Turning to `CCCN(C(=O)CC1CCN(C)CC1)c1ccc(Cl)c(Cl)c1` [Compound D20, N-(3,4-Dichloro-phenyl)-2-(1-methyl-piperidin-4-yl)-N-propyl-acetamide], the IC50 in assay [1] (setting [4]) was found to be 12 nM; in assay [2], 700 nM; in assay [3] (setting [5]) it was 3.4 nM.

Regarding `CCN(C(=O)CC1CCNCC1)c1ccc(Br)c(Br)c1` [Compound C11, N-(3,4-Dibromo-phenyl)-N-ethyl-2-piperidin-4-yl-acetamide], the IC50 in assay [1] (setting [4]) was 2.2 nM; in assay [2], 610 nM; in assay [3] (setting [5]), 1.2 nM.

On to `CCN(C(=O)CC1CCN(C)CC1)c1cc(Cl)ccc1Cl` [Compound D15, N-(2,5-Dichloro-phenyl)-N-ethyl-2-(1-methyl-piperidin-4-yl)-acetamide], for which the IC50 was 1700 nM in assay [1] (setting [4]), above 1000 nM in assay [2] and 860 nM in assay [3] (setting [5]).

Turning to `CCN(C(=O)CC1CCN(C)CC1)c1c(Cl)cccc1Cl` [Compound D16, N-(2,6-Dichloro-phenyl)-N-ethyl-2-(1-methyl-piperidin-4-yl)-acetamide], the 50% inhibitory concentration (IC50) in assay [1] (setting [4]), in assay [2] and in assay [3] (setting [5]) was above 1000 nM in each case.

Regarding `CCN(C(=O)CC1CCNCC1)c1ccc(Cl)cc1Cl` [Compound D5, N-(2,4-Dichloro-phenyl)-N-ethyl-2-piperidin-4-yl-acetamide], the IC50 in assay [1] (setting [4]), in assay [2] and in assay [3] (setting [5]) was above 1000 nM throughout.

With `CCN(C(=O)CC1CCNCC1)c1cc(Cl)ccc1Cl` [Compound C7, N-(2,5-Dichloro-phenyl)-N-ethyl-2-piperidin-4-yl-acetamide], the IC50 in assay [1] (setting [4]) is 2600 nM; in assay [2], above 1000 nM; in assay [3] (setting [5]) it was 1500 nM.

As to `CCN(C(=O)CC1CCN(C)CC1)c1ccc(Cl)cc1Cl` [Compound D14, N-(2,4-Dichloro-phenyl)-N-ethyl-2-(1-methyl-piperidin-4-yl)-acetamide], the IC50 is 2500 nM in assay [1] (setting [4]), above 1000 nM in assay [2] and 960 nM in assay [3] (setting [5]).

On to `CCN(C(=O)CC1CCN(C)CC1)c1ccc(Cl)c(Cl)c1` [Compound D1, N-(3,4-Dichloro-phenyl)-N-ethyl-2-(1-methyl-piperidin-4-yl)-acetamide], for which the IC50 in assay [1] (setting [4]) amounted to 20 nM; in assay [2], 1400 nM; in assay [3] (setting [5]), 4.4 nM.

Take `CCN(C(=O)CC1CCNCC1)c1cccc2ccccc12` [Compound C5, N-Ethyl-N-naphthalen-1-yl-2-piperidin-4-yl-acetamide]: the IC50 is above 1000 nM in assay [1] (setting [4]), above 1000 nM in assay [2] and 600 nM in assay [3] (setting [5]).
